According to PubChem BioAssay AID248 (DTP/NCI, 2004):
Several values for one entry are separate records, joined by “and”; a condition that tells them apart may be missing. Identical values can stand only once. Inconclusive results and toxic doses are left out. Cut-off read from the data, not from the text of the source: active = T/C of 150% or more; inactive = T/C below 125%.

System: L1210 leukemia ip in BDF1 mice, survival T/C
Assay: NCI In Vivo Anticancer Drug Screen. Data for tumor model L1210 Leukemia (intraperitoneal) in B6D2F1 (BDF1) mice
Conditions: endpoint: mean survival time, higher = longer survival
Summary of the method: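 Tumor was transplanted into mice, which were then dosed with test compound or vehicle alone. Survival was recorded for each group, and the treated figure was expressed relative to the control figure.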

[1] = dose: 25.0 mg/kg/injection, schedule: Q01DX009 (ip), vehicle: saline with Tween-80
[2] = dose: 50.0 mg/kg/injection, schedule: Q01DX009 (ip), vehicle: saline with Tween-80
[3] = dose: 25.0 mg/kg/injection, schedule: Q04DX003 (ip), vehicle: Klucel (hydroxypropylcellulose) (HPC)
[4] = dose: 100.0 mg/kg/injection, schedule: Q01DX001 (ip), vehicle: carboxymethylcellulose (CMC)
[5] = dose: 200.0 mg/kg/injection, schedule: Q01DX001 (ip), vehicle: carboxymethylcellulose (CMC)
[6] = dose: 400.0 mg/kg/injection, schedule: Q01DX001 (ip), vehicle: carboxymethylcellulose (CMC)
[7] = dose: 100.0 mg/kg/injection, schedule: Q04DX002 (ip), vehicle: Klucel (hydroxypropylcellulose) (HPC)
[8] = dose: 200.0 mg/kg/injection, schedule: Q04DX002 (ip), vehicle: Klucel (hydroxypropylcellulose) (HPC)
[9] = dose: 400.0 mg/kg/injection, schedule: Q04DX002 (ip), vehicle: Klucel (hydroxypropylcellulose) (HPC)
[10] = dose: 100.0 mg/kg/injection, schedule: Q04DX003 (ip), vehicle: Klucel (hydroxypropylcellulose) (HPC)
[11] = dose: 200.0 mg/kg/injection, schedule: Q04DX003 (ip), vehicle: Klucel (hydroxypropylcellulose) (HPC)
[12] = dose: 400.0 mg/kg/injection, schedule: Q04DX003 (ip), vehicle: Klucel (hydroxypropylcellulose) (HPC)
[13] = dose: 100.0 mg/kg/injection, schedule: Q04DX002 (ip), vehicle: saline with Tween-80
[14] = dose: 200.0 mg/kg/injection, schedule: Q04DX002 (ip), vehicle: saline with Tween-80
[15] = dose: 400.0 mg/kg/injection, schedule: Q04DX002 (ip), vehicle: saline with Tween-80
[16] = dose: 50.0 mg/kg/injection, schedule: Q01DX009 (ip), vehicle: saline
[17] = dose: 200.0 mg/kg/injection, schedule: Q04DX003 (ip), vehicle: saline
[18] = dose: 400.0 mg/kg/injection, schedule: Q04DX003 (ip), vehicle: saline
[19] = dose: 100.0 mg/kg/injection, schedule: Q01DX009 (ip), vehicle: saline
[20] = dose: 200.0 mg/kg/injection, schedule: Q01DX009 (ip), vehicle: saline
[21] = dose: 50.0 mg/kg/injection, schedule: Q01DX009 (ip), vehicle: Klucel (hydroxypropylcellulose) (HPC)
[22] = dose: 100.0 mg/kg/injection, schedule: Q01DX009 (ip), vehicle: Klucel (hydroxypropylcellulose) (HPC)
[23] = dose: 200.0 mg/kg/injection, schedule: Q01DX009 (ip), vehicle: Klucel (hydroxypropylcellulose) (HPC)
[24] = dose: 100.0 mg/kg/injection, schedule: Q01DX001 (ip), vehicle: Klucel (hydroxypropylcellulose) (HPC)

Measured: T/C

c1cc2ccsc2cn1
inactive: dose: 12.5 mg/kg/injection, schedule: Q01DX009 (ip), vehicle: saline with Tween-80 104 % of control | dose: 12.5 mg/kg/injection, schedule: Q04DX003 (ip), vehicle: saline with Tween-80 110 % of control | [1] 103 % of control | dose: 25.0 mg/kg/injection, schedule: Q04DX003 (ip), vehicle: saline with Tween-80 104 % of control | [2] 102 % of control | dose: 50.0 mg/kg/injection, schedule: Q04DX003 (ip), vehicle: saline with Tween-80 103 % of control

CC(C)(C)C1COP(=O)(C(C)(C)C)OC1 (configuration not stated)
inactive: dose: 12.5 mg/kg/injection, schedule: Q04DX003 (ip), vehicle: Klucel (hydroxypropylcellulose) (HPC) 94 % of control | [3] 96 % of control

CC(NC(=O)c1cnc2ccccc2n1)C(=O)NCC(=O)O (configuration not stated)
inactive: [4] 93 % of control | [5] 89 % of control | [6] 94 % of control

Clc1ncnc2c1nnn2C1CCCC1
inactive: dose: 100.0 mg/kg/injection, schedule: Q01DX001 (ip), vehicle: saline 101 % of control | dose: 200.0 mg/kg/injection, schedule: Q01DX001 (ip), vehicle: saline 104 % of control

CC[N+](CC)(CCOc1ccc(C(C)(C)CC(C)(C)C)cc1)Cc1ccccc1
inactive: dose: 1.25 mg/kg/injection, schedule: Q01DX009 (ip), vehicle: saline with Tween-80 86 % of control

CCCCOC(=O)c1ccc(NC(=S)NC(=O)COc2ccccc2)cc1
inactive: [7] 118 % of control | [8] 101 % of control | [9] 97 % of control

CC(=O)CC(=O)N1CCCCC1C (configuration not stated)
inactive: [10] 104 % of control | [11] 101 % of control | [12] 97 % of control

COc1ccc(-c2nnc(-c3ccc(OC)cc3)nn2)cc1
inactive: [7] 103 % of control | [8] 87 % of control | [9] 87 % of control

CC(=O)OC1(C)CC(C)C(O)C(C(O)CC2CC(=O)NC(=O)C2)C1 (configuration not stated)
inactive: dose: 5.0 mg/kg/injection, schedule: Q01DX001 (ip), vehicle: water 98 % of control | dose: 10.0 mg/kg/injection, schedule: Q01DX001 (ip), vehicle: water 107 % of control | dose: 20.0 mg/kg/injection, schedule: Q01DX001 (ip), vehicle: water 112 % of control

O=S(=O)(c1ccc(N=NN2CCOCC2)cc1)N(CCCl)CCCl
inactive: [13] 108 % of control | [14] 115 % of control | [15] 115 % of control

C=CC(=O)Oc1ccc([N+](=O)[O-])cc1
inactive: dose: 12.0 mg/kg/injection, schedule: Q01DX009 (ip), vehicle: saline 100 % of control | dose: 25.0 mg/kg/injection, schedule: Q01DX009 (ip), vehicle: saline 117 % of control | [16] 114 % of control | [17] 100 % of control | [18] 108 % of control

CN(C)P1(N)=NP(N)(N(C)C)=NP(N)(N(C)C)=N1 (configuration not stated)
inactive: [19] 98 % of control | [20] 95 % of control | dose: 400.0 mg/kg/injection, schedule: Q01DX009 (ip), vehicle: saline 93 % of control

O=[N+]([O-])c1ccc(-c2nnc(-c3ccccc3O)o2)cc1
inactive: dose: 50.0 mg/kg/injection, schedule: Q04DX002 (ip), vehicle: saline with Tween-80 92 % of control | [13] 89 % of control | [14] 89 % of control | [15] 89 % of control

CCCCCCCNC(=O)Nc1cccc(Cl)c1C
inactive: [3] 103 % of control | [21] 101 % of control | dose: 50.0 mg/kg/injection, schedule: Q04DX003 (ip), vehicle: Klucel (hydroxypropylcellulose) (HPC) 101 % of control | [22] 89 % of control | [10] 95 % of control and 101 % of control | [23] 93 % of control

CCCCC(CCCCCC(CCCC)C1NC(C)Cc2cc(OC)c(OC)cc21)C1NC(C)Cc2cc(OC)c(OC)cc21 (configuration not stated)
inactive: dose: 25.0 mg/kg/injection, schedule: Q01DX001 (ip), vehicle: Klucel (hydroxypropylcellulose) (HPC) 98 % of control | dose: 50.0 mg/kg/injection, schedule: Q01DX001 (ip), vehicle: Klucel (hydroxypropylcellulose) (HPC) 105 % of control | [24] 90 % of control and 91 % of control

O=C1C=CC(=O)N1CCCCCCCCCCN1C(=O)C=CC1=O
inactive: dose: 1.0 mg/kg/injection, schedule: Q01DX Z (ip), vehicle: methylcellulose (MC) 94 % of control | dose: 1.4 mg/kg/injection, schedule: Q01DX Z (ip), vehicle: methylcellulose (MC) 96 % of control | dose: 2.2 mg/kg/injection, schedule: Q01DX Z (ip), vehicle: methylcellulose (MC) 90 % of control

COC(C)=C1c2ccccc2-c2ccccc21
inactive: [24] 98 % of control | dose: 200.0 mg/kg/injection, schedule: Q01DX001 (ip), vehicle: Klucel (hydroxypropylcellulose) (HPC) 99 % of control | dose: 400.0 mg/kg/injection, schedule: Q01DX001 (ip), vehicle: Klucel (hydroxypropylcellulose) (HPC) 94 % of control

O=C(C[n+]1ccccc1)N/N=C/c1ccc([N+](=O)[O-])s1
inactive: dose: 12.5 mg/kg/injection, schedule: Q01DX009 (ip), vehicle: water 96 % of control | dose: 25.0 mg/kg/injection, schedule: Q01DX009 (ip), vehicle: water 101 % of control

CC(=O)Nc1ccc(S(=O)(=O)NO)cc1
inactive: [16] 96 % of control | [19] 100 % of control | dose: 100.0 mg/kg/injection, schedule: Q04DX003 (ip), vehicle: saline 100 % of control | [20] 94 % of control | [17] 103 % of control | [18] 101 % of control

CC1(C)N=C(N)N=C(N)N1c1cccc(CC(=O)Nc2ccc(S(=O)(=O)F)cc2)c1
inactive: dose: 0.8 mg/kg/injection, schedule: Q01DX009 (ip), vehicle: saline 101 % of control | dose: 4.0 mg/kg/injection, schedule: Q01DX009 (ip), vehicle: saline 100 % of control | dose: 20.0 mg/kg/injection, schedule: Q01DX009 (ip), vehicle: saline 110 % of control | dose: 25.0 mg/kg/injection, schedule: Q01DX009 (ip), vehicle: Klucel (hydroxypropylcellulose) (HPC) 108 % of control | [1] 103 % of control | [21] 113 % of control | [2] 100 % of control | dose: 88.0 mg/kg/injection, schedule: Q01DX009 (ip), vehicle: saline with Tween-80 102 % of control | [22] 109 % of control | [19] 117 % of control | dose: 132.0 mg/kg/injection, schedule: Q01DX009 (ip), vehicle: saline with Tween-80 121 % of control | dose: 150.0 mg/kg/injection, schedule: Q01DX009 (ip), vehicle: Klucel (hydroxypropylcellulose) (HPC) 105 % of control | dose: 300.0 mg/kg/injection, schedule: Q01DX009 (ip), vehicle: saline with Tween-80 89 % of control

COC(=O)CNc1ccc(S(=O)(=O)c2ccc(N)cc2)cc1
inactive: [22] 107 % of control | [10] 97 % of control | [23] 92 % of control | [11] 101 % of control | dose: 400.0 mg/kg/injection, schedule: Q01DX009 (ip), vehicle: Klucel (hydroxypropylcellulose) (HPC) 88 % of control | [12] 97 % of control

CCC/C(=N/OC(=O)N(C)C)c1ccccc1
inactive: [4] 97 % of control | [5] 98 % of control | [6] 101 % of control

Clc1ccc(OCc2sc3ccc(Cl)cc3c2CN2CCOCC2)cc1
inactive: dose: 100.0 mg/kg/injection, schedule: Q04DX003 (ip), vehicle: saline with Tween-80 91 % of control | dose: 200.0 mg/kg/injection, schedule: Q04DX003 (ip), vehicle: saline with Tween-80 90 % of control | dose: 400.0 mg/kg/injection, schedule: Q04DX003 (ip), vehicle: saline with Tween-80 91 % of control

COc1ccccc1CC(C)(C)O
inactive: [2] 98 % of control | dose: 100.0 mg/kg/injection, schedule: Q01DX009 (ip), vehicle: saline with Tween-80 95 % of control | dose: 200.0 mg/kg/injection, schedule: Q01DX009 (ip), vehicle: saline with Tween-80 101 % of control
